Measurements taken from PubChem BioAssay (NCI).
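Here, GI50 denotes the concentration required for 50% inhibition of growth. TGI: concentration producing complete growth inhibition.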

Legend:
Assay in all cases: NCI tumour cell line growth inhibition, 384-well format; in the data active = GI50 below about 0.43 µM; inactive = the rest
[1] = tested on: SW-620 colon
[2] = tested on: SN12C renal
[3] = tested on: NCI-H322M lung
[4] = tested on: A549 NSCLC
[5] = tested on: SNB-75 CNS
[6] = tested on: OVCAR-5 ovarian
[7] = tested on: M14 melanoma
[8] = tested on: HCC-2998 colon
[9] = tested on: NCI-H23 lung
[10] = tested on: NCI/ADR-RES ovarian
[11] = tested on: SNB-19 CNS
[12] = tested on: HCT-15 colon
[13] = tested on: PC-3 prostate

Cc1ccc2c(Nc3cccc(Cl)c3F)ncc(NC(=O)c3csc4c(N)ncnc34)c2c1
0.186 µM: TGI [7]
4.46 µM: TGI [9]
0.537 µM: TGI [8]
inactive: GI50 [1] 0.721 µM | GI50 [2] 8.16 µM | GI50 [3] 17.4 µM | GI50 [4] 17.5 µM | GI50 [5] 33.6 µM | GI50 [10] 19.7 µM | GI50 [11] 55 µM | GI50 [12] 26.3 µM | GI50 [13] 57.3 µM
active: GI50 [6] 0.178 µM | GI50 [7] 0.0224 µM | GI50 [8] 0.115 µM | GI50 [9] 0.0761 µM
> 100 µM: TGI [1] | TGI [2] | TGI [3] | TGI [4] | TGI [5] | TGI [6] | TGI [10] | TGI [11] | TGI [12] | TGI [13]
